{"source": "paper PMC3303611", "about": "(Journal of Medicinal Chemistry, 2012)", "key": {"rat H3 receptors": {"molecular_target": "rat H3 receptors", "conditions": "known, ref not given; cited from earlier work"}, "human H3 receptors": {"system": "human H3 receptors", "conditions": "human vs rat H3; known, ref not given; cited from earlier work"}, "brain H3 receptors": {"system": "brain H3 receptors", "experiment": "PET imaging of [18F]9 in monkey", "type": "in vivo, rhesus monkey", "conditions": "[18F]9 Vt, two monkeys, ciproxifan pretreatment"}, "H3 receptor": {"molecular_target": "H3 receptor (Homo sapiens, UniProt Q9Y5N1)", "sequence (Q9Y5N1 whole entry)": "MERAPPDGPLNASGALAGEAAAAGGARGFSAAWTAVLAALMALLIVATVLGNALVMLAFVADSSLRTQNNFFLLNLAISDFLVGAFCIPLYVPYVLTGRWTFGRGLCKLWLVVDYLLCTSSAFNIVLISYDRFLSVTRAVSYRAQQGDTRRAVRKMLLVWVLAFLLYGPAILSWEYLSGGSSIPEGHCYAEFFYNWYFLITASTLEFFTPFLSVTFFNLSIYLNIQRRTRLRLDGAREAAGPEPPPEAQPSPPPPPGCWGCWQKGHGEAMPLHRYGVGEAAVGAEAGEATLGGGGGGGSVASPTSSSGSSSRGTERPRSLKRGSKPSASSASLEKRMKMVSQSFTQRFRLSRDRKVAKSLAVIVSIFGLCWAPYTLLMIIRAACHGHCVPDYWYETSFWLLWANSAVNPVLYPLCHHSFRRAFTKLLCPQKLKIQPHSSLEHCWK", "experiment": "GTP-γ-S assay performed by the Psychoactive Drug Screening Program", "type": "biochemical"}}, "note": "Like-named read-outs stand apart in the source and are kept apart here."}
{"smiles": "O=C(c1ccc(OCCCc2c[nH]cn2)cc1)C1CC1", "note": "[ciproxifan]", "values": [{"measurement": "Ki", "setting": "rat H3 receptors", "result": 0.51, "unit": "nM"}, {"measurement": "lower affinity for human H3 receptors than for rat H3 receptors", "setting": "human H3 receptors", "result": "over 100 fold"}, {"measurement": "Mean Vt decrease", "setting": "brain H3 receptors; Cerebellum", "result": -26, "unit": "%"}, {"measurement": "Mean Vt decrease", "setting": "brain H3 receptors; Frontal cortex", "result": -34, "unit": "%"}, {"measurement": "Mean Vt decrease", "setting": "brain H3 receptors; Hippocampus", "result": -33, "unit": "%"}, {"measurement": "Mean Vt decrease", "setting": "brain H3 receptors; Striatum", "result": -26, "unit": "%"}, {"measurement": "Mean Vt decrease", "setting": "brain H3 receptors; Thalamus", "result": -33, "unit": "%"}]}
{"smiles": "C[C@@H]1CCCN1CCc1cc2cc(C(=O)c3ccc(F)cc3)ccc2o1", "note": "[Compound 9, (R)-(2-(2-(2-methylpyrrolidin-1-yl)ethyl)benzofuran-5-yl)(4-fluorophenyl)methanone]", "values": [{"measurement": "intrinsic activity", "setting": "H3 receptor", "result": "inverse agonists"}]}
{"smiles": "C[C@@H]1CCCN1CCc1cc2cc(C(=O)c3ccc([N+](=O)[O-])cc3)ccc2o1", "note": "[Compound 12, (R)-(2-(2-(2-Methylpyrrolidin-1-yl)ethyl)benzofuran-5-yl)(4-nitrophenyl)methanone]", "values": [{"measurement": "intrinsic activity", "setting": "H3 receptor; GTP-γ-S assay, Psychoactive Drug Screening Program", "result": "inverse agonists"}]}
